{
  "source": "patent US11957665B1",
  "about": "“Pharmaceutical composition for preventing or treating alopecia areata acting as a functional antagonist for S1PR1 and S1PR4” (NEXTGEN BIOSCIENCE CO., LTD., priority 2022, dated 2024)",
  "key": {"[1]": {"tested_on": "T cells, CD4 T cells, CD8 T cells", "test": "Inhibitory effect of NXC736 on mouse immune cells (flow cytometry of lymphocytes in peripheral blood and bone marrow)", "type": "in vivo, C57BL/6 mice", "settings": "3 mg/kg oral once", "protocol": "To determine whether NXC736, which acts on the S1P receptor, also has an effect on lymphocyte reduction, the effect of NXC736 on immune cells was evaluated. After oral administration of NXC736 once at 3 mg/kg/day to C57BL/6 mice (Daehan BioLink (DBL), 4 mice in the control group and 18 mice in the test group), the change in lymphocytes in peripheral blood (PB), bone marrow (BM) was measured by classifying into T cells (using anti-mouse CD3ε-PE/cyanine7 antibody), CD4 T cells (using anti-mouse CD4-FITC antibody), and CD8 T cells (using anti-mouse CD8a-PerCP antibody). Specifically, measurements were made using a flow cytometer (FC500, Beckman coulter) at 0, 4, 8, 12, 24, and 36 hours after administration of the test substance, the analysis was performed using FlowJo™ V10 (Flowjo, LLC), and the numbers of T cells, CD4 T cells, and CD8 T cells were expressed as % of control based on time 0."}, "[2]": {"target": "T1, hERG potassium ion channel (Homo sapiens, UniProt Q12809)", "T1 sequence (Q12809 whole entry)": "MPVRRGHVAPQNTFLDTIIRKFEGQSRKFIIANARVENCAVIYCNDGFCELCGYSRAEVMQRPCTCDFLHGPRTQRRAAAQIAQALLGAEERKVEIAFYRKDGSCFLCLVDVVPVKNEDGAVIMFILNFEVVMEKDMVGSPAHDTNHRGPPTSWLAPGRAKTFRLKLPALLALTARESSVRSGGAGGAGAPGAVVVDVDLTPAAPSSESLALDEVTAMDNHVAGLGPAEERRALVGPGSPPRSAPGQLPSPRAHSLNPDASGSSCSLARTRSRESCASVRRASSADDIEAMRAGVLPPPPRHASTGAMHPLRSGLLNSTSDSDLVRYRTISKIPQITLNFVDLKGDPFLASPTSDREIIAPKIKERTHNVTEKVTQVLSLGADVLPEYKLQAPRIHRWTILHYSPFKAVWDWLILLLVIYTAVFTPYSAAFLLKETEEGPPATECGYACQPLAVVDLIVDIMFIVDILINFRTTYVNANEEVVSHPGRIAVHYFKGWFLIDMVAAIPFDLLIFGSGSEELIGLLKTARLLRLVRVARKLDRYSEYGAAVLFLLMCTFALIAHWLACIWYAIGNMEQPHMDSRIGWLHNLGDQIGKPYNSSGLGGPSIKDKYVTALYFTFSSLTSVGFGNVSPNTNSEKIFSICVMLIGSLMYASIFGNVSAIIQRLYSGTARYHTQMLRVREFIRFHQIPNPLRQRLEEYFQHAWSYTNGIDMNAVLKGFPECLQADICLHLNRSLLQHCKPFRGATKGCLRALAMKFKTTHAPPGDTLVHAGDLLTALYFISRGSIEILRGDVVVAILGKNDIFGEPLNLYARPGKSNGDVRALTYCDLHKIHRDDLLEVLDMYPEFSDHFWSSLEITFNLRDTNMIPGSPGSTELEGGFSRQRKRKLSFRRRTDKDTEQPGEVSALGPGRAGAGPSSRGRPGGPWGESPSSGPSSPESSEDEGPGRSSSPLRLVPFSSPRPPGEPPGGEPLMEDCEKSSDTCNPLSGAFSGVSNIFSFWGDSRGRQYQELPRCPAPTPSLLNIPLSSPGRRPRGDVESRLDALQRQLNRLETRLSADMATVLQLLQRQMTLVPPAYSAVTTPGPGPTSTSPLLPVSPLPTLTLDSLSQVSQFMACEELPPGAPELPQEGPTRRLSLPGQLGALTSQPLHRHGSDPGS", "test": "Effect on hERG channel currents in HEK-293 cells overexpressing the hERG gene"}, "[3]": {"target": "T1, hERG potassium ion channel", "test": "cell-based"}, "[4]": {"tested_on": "alopecia areata mouse model C3H/HeJ", "test": "Efficacy in suppressing alopecia areata in C3H/HeJ alopecia areata mouse model", "type": "in vivo, C3H/HeJ mice", "protocol": "The effectiveness of NXC736 for alopecia areata was evaluated using the alopecia areata mouse model C3H/HeJ (Jackson Lab, Saeron Bio). […] Conditions for the animal breeding room include a temperature of 23±3° C., relative humidity of 50±10%, and day and night maintained at 12-hour intervals, and experimental animals were raised in isolation breeding boxes (ThreeShine), and fed with food and drinking water for experimental animals ad libitum.\nMice were divided into two groups: the control group (sterilized distilled water administration group) and the NXC736 administration experimental group, five C3H/HeJ mice were randomly assigned per group, and from the time point lymph node cells were proliferated and injected into C3H/HeJ mice aged 10 to 16 weeks where no alopecia was induced, NXC736 was orally administered at 30 mg/kg for the NXC736 administration group and the same volume of sterilized distilled water was orally administered for the control group for 12 weeks once a day at the same time, respectively, and then the area of alopecia areata (AA) lesion area and disease free ratio were measured at intervals of 2 weeks.\nThe alopecia areata lesion area was measured using the Image J program (Version 1.44p) after taking a photograph.\nThe disease free ratio was defined as the proportion of mice administered the drug and not showing alopecia symptoms at a specified time point."}, "[5]": {"tested_on": "beagle dogs", "test": "Effect on the cardiovascular system (heart rate, general symptoms) in beagle dogs", "type": "in vivo", "protocol": "NXC736 was orally administered to four unanesthetized and unrestrained male beagle dogs (ORIENTBIO Inc., Republic of Korea) implanted with remote transmitters. Afterwards, the heart rate of four beagle dogs was measured to evaluate the effect of NXC736 on the cardiovascular system, and the occurrence of abnormal symptoms was visually checked.\nIn this experiment, 4 beagle dogs were administered with 0.5% MC aqueous solution, which is an excipient, as a control substance, and the heart rate was measured, and after 1 week, NXC736 was administered at 12.5 mg/kg and the heart rate was measured, after 1 week, NXC736 was administered at 25 mg/kg and the heart rate was measured, and after 1 week, NXC736 was administered at 50 mg/kg and the heart rate was measured.\nThe heart rate of beagle dogs was specifically measured at 0 hours before administration of the test substance, and 0.5 hours, 1 hour, 2 hours, 3 hours, 4 hours, 6 hours, 8 hours, 12 hours, and 24 hours after administration of the test substance."}, "[6]": {"tested_on": "T cells, CD4 T cells, CD8 T cells", "test": "Inhibitory effect of NXC736 on rat immune cells (flow cytometry of lymphocytes in peripheral blood and bone marrow)", "type": "in vivo, SD rats", "settings": "10 mg/kg oral once, PB", "protocol": "To evaluate the effect of NXC736 on rat immune cells, NXC736 was administered orally once at 10 mg/kg/day to SD rats (Daehan BioLink (DBL), 3 control groups, and 15 test groups), and then measurements were performed by classifying into T cells, CD4 T cells, and CD8 T cells in peripheral bloodstream (PB) and bone marrow (BM) using the same antibodies as in Experimental Example 1. Specifically, measurements were made using a flow cytometer (FC500, Beckman coulter) at 0, 4, 8, 12, 24, 36, and 48 hours after administration of the test substance, the analysis was performed using FlowJo™ V10 (Flowjo, LLC), and the numbers of T cells, CD4 T cells, and CD8 T cells were expressed as % of control based on time 0."}},
  "data": [
    {"smiles": "CCCCCCCCCCn1cc(CCC(N)(CO)CO)nn1", "note": "[NXC736, 2-amino-2-(2-(1-decyl-1H-1,2,3-triazol-4-yl)ethyl)propane-1,3-diol]", "values": [
      {"measurement": "time until which the decrease of T cells in PB was maintained", "setting": "[1]", "result": "≤ 12", "unit": "h"},
      {"measurement": "T cells in PB after recovery (% of control)", "setting": "[1]; at 36 hours", "result": 88.9, "unit": "%"},
      {"measurement": "hERG potassium channel activity, conclusion", "setting": "[2]", "result": "does not inhibit hERG potassium channel activity"},
      {"measurement": "IC50", "setting": "[3]", "result": 12.9, "unit": "µM"},
      {"measurement": "time to observe 100% alopecia areata (disease free ratio)", "setting": "[4]; 30 mg/kg oral once a day", "result": "up to 84 days"},
      {"measurement": "alopecia areata (AA) lesion area", "setting": "[4]; 30 mg/kg oral once a day for 12 weeks", "result": "approximately 10%"},
      {"measurement": "heart rate", "setting": "[5]; oral doses of 12.5, 25 and 50 mg/kg, 0-24 hours", "result": "no change in heart rate"},
      {"measurement": "general symptoms, naked eye", "setting": "[5]; oral doses of 12.5, 25 or 50 mg/kg", "result": "no abnormal symptoms were observed"},
      {"measurement": "time for which the immunosuppressive effect was maintained", "setting": "[6]", "result": "up to 24 hours"}
    ]}
  ]
}
